Broadly, the IC50 is the concentration at which inhibition is half-maximal.

Three molecules from patent publication US20160158236A1, “PHARMACEUTICAL COMPOSITION COMPRISING A TRPA1 ANTAGONIST AND A STEROID” (GLENMARK PHARMACEUTICALS S.A., priority 2011, published 2016) can be followed below.

In one experiment the target is T1, human TRPA1 receptor (Homo sapiens, UniProt O75762).
T1 construct: expressed in transfected cells; host or cells: CHO cells
Description: Inhibition of AITC induced cellular uptake of radioactive calcium in human TRPA1 expressing CHO cells. The experiment is classed as cell-based. Particulars: read-out: hTRPA1 IC50 values. As for the experimental part:
Test compound solution is prepared in a suitable solvent. Human TRPA1 expressing CHO cells are grown in suitable medium. Cells are treated with test compounds followed by addition of AITC. Cells are washed, lysed and the radioactivity in the lysate is measured in Packard Top count after addition of liquid scintillant.
The concentration response curves for compounds are plotted as a % of maximal response obtained in the absence of test antagonist, and the IC50 values are calculated from such concentration response curve by nonlinear regression analysis using GraphPad PRISM software.

The subject of experiment [1] is ovalbumin sensitized female Balb/C mice. Description: Ovalbumin induced inflammation in ovalbumin sensitized mice (Compound 52 and prednisolone), BAL cell counts. The experiment is classed as in vivo. Particulars: 1 mg/Kg p.o. (combination: 1 mg/Kg of each compound); BAL 24 hours after ovalbumin challenge. As for the experimental part: Sensitized mice were randomly assigned to different treatment groups. […] Animals were administered Compound 52 orally 24 hrs before first ovalbumin challenge and 2 hrs before ovalbumin challenge from Day-11 to 13. Animals were administered Prednisolone orally 24 hrs before first ovalbumin challenge and 2 hrs before ovalbumin challenge from Day-11 to 13. The animals were divided into groups as per Table 2.
Broncho Alveolar Lavage (BAL) was performed at 24 hours after challenge with ovalbumin. Animals were anesthetized with an overdose of urethane, trachea was exposed and BAL was performed 4 times using 0.3 mL PBS. All aspirates of BAL were pooled and total number of cells determined using a hemocytometer. The BAL was centrifuged, and the cell pellet was used for preparation of smears. Slides were stained with Giemsa stain and a differential cell count of 500 cells based on standard morphology was performed manually.
Calculations: The total number of eosinophils in each BAL sample was calculated using the formula: […]
Percent inhibition of eosinophils was calculated using the following formula: […]

T1 sequence (O75762 whole entry): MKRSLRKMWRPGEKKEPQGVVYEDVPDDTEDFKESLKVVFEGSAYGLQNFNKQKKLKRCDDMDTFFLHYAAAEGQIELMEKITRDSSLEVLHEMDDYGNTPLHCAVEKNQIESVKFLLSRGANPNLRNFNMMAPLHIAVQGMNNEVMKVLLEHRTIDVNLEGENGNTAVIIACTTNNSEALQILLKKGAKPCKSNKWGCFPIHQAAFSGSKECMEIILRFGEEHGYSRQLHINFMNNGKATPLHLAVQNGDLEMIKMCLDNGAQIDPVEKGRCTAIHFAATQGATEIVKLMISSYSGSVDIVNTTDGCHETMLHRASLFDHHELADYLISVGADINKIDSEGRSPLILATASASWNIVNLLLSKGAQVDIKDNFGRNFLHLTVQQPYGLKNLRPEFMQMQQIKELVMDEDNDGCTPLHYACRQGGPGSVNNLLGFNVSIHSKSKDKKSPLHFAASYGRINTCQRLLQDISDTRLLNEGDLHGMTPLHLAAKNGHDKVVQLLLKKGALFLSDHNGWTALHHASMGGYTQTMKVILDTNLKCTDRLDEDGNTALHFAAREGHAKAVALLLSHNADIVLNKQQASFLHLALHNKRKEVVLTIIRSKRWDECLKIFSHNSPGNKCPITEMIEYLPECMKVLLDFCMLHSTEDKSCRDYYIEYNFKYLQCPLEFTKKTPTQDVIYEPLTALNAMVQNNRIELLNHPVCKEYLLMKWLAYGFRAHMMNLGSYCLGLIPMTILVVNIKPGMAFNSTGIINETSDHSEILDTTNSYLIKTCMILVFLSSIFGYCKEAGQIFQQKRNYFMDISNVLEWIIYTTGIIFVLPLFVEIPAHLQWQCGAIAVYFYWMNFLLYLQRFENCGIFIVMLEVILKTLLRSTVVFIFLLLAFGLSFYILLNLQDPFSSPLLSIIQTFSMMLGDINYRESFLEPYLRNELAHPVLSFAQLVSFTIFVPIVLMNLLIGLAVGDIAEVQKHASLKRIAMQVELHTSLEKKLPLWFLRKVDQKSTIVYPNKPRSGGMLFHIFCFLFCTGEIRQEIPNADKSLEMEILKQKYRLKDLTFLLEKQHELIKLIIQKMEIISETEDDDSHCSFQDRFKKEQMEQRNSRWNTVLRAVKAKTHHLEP

Turning to `CC(C)C(N)C(=O)OCn1c(-c2ccc(F)c(C(F)(F)F)c2F)csc1=NC(=O)Cc1csc2c1c(=O)n(C)c(=O)n2C` (stereo not drawn) [Compound 97], the IC50 on human TRPA1 receptor is 21.9 nM.
For `C[C@]12C=CC(=O)C=C1CC[C@@H]1[C@@H]2[C@@H](O)C[C@@]2(C)[C@H]1CC[C@]2(O)C(=O)CO` [Prednisolone, reference compound], in experiment [1], the “% Inhibition of cell in BALf” value was found to be 21%, the “% Inhibition of eosinophils in BALf” value was determined as 24%, the “Total cell number in BALf” value worked out at 10.8 ± 1.0 and the “Total eosinophils in BALf” value is 5.6 ± 0.7.
Taken in the same sequence, the figures for `Cn1c(=O)c2c(CC(=O)Nc3nc(-c4ccc(F)c(C(F)(F)F)c4F)cs3)csc2n(C)c1=O` [Compound 52] were 10%, 21%, 12.2 ± 0.5 and 5.8 ± 0.5.
